Series [1] relates to cancer cell lines. In words: NCI in vitro cell screening (SRB, dose-response). It is filed as cell-based. Conditions: NCI panel, 48 hours. From the text:
Uscharin was obtained as in Example 2 and was subjected to in vitro cell screening at the National Cancer Institute (NCI), USA in respect of a panel of cancel cell types organised into subpanels representing leukemia, lung cancers, colon cancer, cancer of the central nervous system, melanoma, ovarian cancer, renal cancer, and in some cases prostate cancer and breast cancer also.
The standard NCI methodology which was employed is described in Michael R Boyd, Principles and Practices of Oncology, Vol, 3, No. 10 (October 1989) and Monks A. et al., Journal of the National Cancer Institute, Vol. 83, No. 11, (Jun. 5, 1991).
The Dose-Response Curve is created by plotting the Calculated Percent Growth (PG) of each cell line against the log(10) of the corresponding drug concentration. The cell line curves are grouped by cell type, or subpanel. Mean Log(10) concentrations for all cell lines tested are calculated at three points: where the test compound achieved 50% inhibition of cell growth (GI50), where the test compound achieved 0% cell growth or total growth inhibition (TGI), and where the test compound achiveved 50% cell kill or 50% lethal concentration (LC50). Reference lines are shown at the percent growth values of +50 (GI50), 0 (TGI) and −50 (LC50).
Percentage Growth (PG)—of the compound on a cell line is currently calculated according to one of the following expressions:
If (Mean OD(test)−Mean OD(tzero)>=0,
PG=100×(Mean OD(test)−Mean OD(tzero)/(mean OD(ctrl)−Mean OD(tzero)
If (Mean OD(test−Mean OD(tzero)<0,
PG=100×(Mean OD(test)−Mean OD(tzero)/Mean OD(tzero)
Mean OD (tzero)=The average of optical density measurements of SRB-derived colour just before exposure of cells to the test compound.
Mean OD (test)=The average of optical density measurements of SRB-derived colour after 48 hours […] of cells to the test compound.
Mean OD (ctrl)=The average of optical density measurements of SRB-derived colour after 48 hours […] of cells to the test compound.

The subject of series [2] is SCC-1 cells. In words: Nude mice injected with SCC-1 human tumour cells, drug treatment. Type of series: in vivo, mice (BALB/c nude). Particulars: nude mice with SCC-1 cells; versus control. On the procedure: The SCCI cells (human tumour cell line) where grown (1×10^5/ml seeding density) in 25 ml RPMI 1640 (10% foetal calf serum, 5% glutamine) in 75 cm^2 tissue culture flasks. The cells were harvested at log growth phase (5 days approximately) and washed once in saline before injection into the mice.
The “nude” mice (BALB/c nude) are reared and contained within a sealed isolator. The mice were injected with 1×10^7 cells subcut on the back, right hand side near the shoulder blades. After 7 days the mice were split randomly into the study groups (10-15 animals per group). Each was then treated with a different regime, the variable being time between injections and dose of drug at each injection, control groups were also included in the overall plan of the experiement.
During the trial a daily check was made on the animals and any animal removed if the tumour size became too large (>5-7% total body weight) or if the animal is showing signs of distress. Additional to this the tumour should be assessed every 3-4 days by an independent observer and the result recorded. Once an animal is removed from the study the tumour size, volume and weight was determined and the tumour stored for further cytological study. The reason for the animals removal from the study was also recorded, if this was not due to tumour size. […]

In series [3] the test system is tumour. Particulars: cited from earlier work.
Series [4] concerns primate tumour cells. Conditions: cited from earlier work.

In the case of `C[C@@H]1CC(=O)[C@]2(O)O[C@@H]3C[C@@]4(C=O)[C@@H](CC[C@@H]5[C@@H]4CC[C@]4(C)[C@@H](C6=CC(=O)OC6)CC[C@]54O)C[C@H]3O[C@@H]2O1` [Uscharidin, uscharidin], the “inhibitory effect on the growth of cancer cell lines in vitro” value (from here on “inhibitory effect on the growth”) in series [1] was “inhibitory effect”.

As for `C[C@@H]1C[C@@]2(N=CCS2)[C@]2(O)O[C@@H]3C[C@@]4(C=O)[C@@H](CC[C@@H]5[C@@H]4CC[C@]4(C)[C@@H](C6=CC(=O)OC6)CC[C@]54O)C[C@H]3O[C@@H]2O1` [Uscharin, uscharin], in series [1], the “inhibitory effect on the growth” value is “inhibitory effect”. Also, the “reduction in percentage mortality due to the cancer cells” value in series [2] is recorded as “up to 45%”.

Regarding `C[C@H]1O[C@H]2O[C@@H]3C[C@@H]4CC[C@@H]5C(CC[C@]6(C)[C@@H](C7=CC(=O)OC7)CC[C@]56O)[C@@]4(C=O)C[C@H]3O[C@@]2(O)[C@H](O)[C@@H]1O` (stereo partly shown) [calotoxin], the “inhibitory effect on the growth” value in series [1] was “inhibitory effect”.

Turning to `C[C@@H]1C[C@H](O)[C@]2(O)O[C@@H]3C[C@@]4(C=O)[C@@H](CC[C@@H]5[C@@H]4CC[C@]4(C)[C@@H](C6=CC(=O)OC6)CC[C@]54O)C[C@H]3O[C@@H]2O1` [calotropin], the “in vivo tumour-inhibiting activity” value in series [3] is “no in vivo tumour-inhibiting activity”.

For `C[C@]12CC[C@H](O)C[C@@H]1CC[C@@H]1[C@@H]2CC[C@]2(C)[C@@H](C3=CC(=O)OC3)CC[C@]12O` [uzarigenin], the “in vivo tumour-inhibiting activity” value in series [3] is recorded as “no in vivo tumour-inhibiting activity”. In addition, the “cytotoxic activity against primate tumour cells” value in series [4] is given as “cytotoxic activity”.

The record behind these values is US6342490B1, “Pharmaceutical composition containing uscharidin or its analogues” (Phyto Corporation Limited, priority 1997, dated 2002).
